How the values were obtained:
Assay in all cases: KINOMEscan
Format in all cases: binding
Conditions in all cases: read-out: % control activity remaining
[1] = molecular target: T1, CDK9 (Homo sapiens, UniProt P50750)
T1 construct: purchased Eurofins DiscoverX KINOMEscan

[2] = molecular target: T2, ABL1(T315I)-nonphosphorylated (Homo sapiens, UniProt P00519, T315I)
T2 construct: purchased Eurofins DiscoverX KINOMEscan

[3] = molecular target: T3, MYLK2 (Homo sapiens, UniProt Q9H1R3)
T3 construct: purchased Eurofins DiscoverX KINOMEscan

[4] = molecular target: T4, YANK2 (Homo sapiens, UniProt Q9NY57)
T4 construct: purchased Eurofins DiscoverX KINOMEscan

[5] = molecular target: T5, MERTK (Homo sapiens, UniProt Q12866)
T5 construct: purchased Eurofins DiscoverX KINOMEscan
T5 sequence (Q12866 21-999): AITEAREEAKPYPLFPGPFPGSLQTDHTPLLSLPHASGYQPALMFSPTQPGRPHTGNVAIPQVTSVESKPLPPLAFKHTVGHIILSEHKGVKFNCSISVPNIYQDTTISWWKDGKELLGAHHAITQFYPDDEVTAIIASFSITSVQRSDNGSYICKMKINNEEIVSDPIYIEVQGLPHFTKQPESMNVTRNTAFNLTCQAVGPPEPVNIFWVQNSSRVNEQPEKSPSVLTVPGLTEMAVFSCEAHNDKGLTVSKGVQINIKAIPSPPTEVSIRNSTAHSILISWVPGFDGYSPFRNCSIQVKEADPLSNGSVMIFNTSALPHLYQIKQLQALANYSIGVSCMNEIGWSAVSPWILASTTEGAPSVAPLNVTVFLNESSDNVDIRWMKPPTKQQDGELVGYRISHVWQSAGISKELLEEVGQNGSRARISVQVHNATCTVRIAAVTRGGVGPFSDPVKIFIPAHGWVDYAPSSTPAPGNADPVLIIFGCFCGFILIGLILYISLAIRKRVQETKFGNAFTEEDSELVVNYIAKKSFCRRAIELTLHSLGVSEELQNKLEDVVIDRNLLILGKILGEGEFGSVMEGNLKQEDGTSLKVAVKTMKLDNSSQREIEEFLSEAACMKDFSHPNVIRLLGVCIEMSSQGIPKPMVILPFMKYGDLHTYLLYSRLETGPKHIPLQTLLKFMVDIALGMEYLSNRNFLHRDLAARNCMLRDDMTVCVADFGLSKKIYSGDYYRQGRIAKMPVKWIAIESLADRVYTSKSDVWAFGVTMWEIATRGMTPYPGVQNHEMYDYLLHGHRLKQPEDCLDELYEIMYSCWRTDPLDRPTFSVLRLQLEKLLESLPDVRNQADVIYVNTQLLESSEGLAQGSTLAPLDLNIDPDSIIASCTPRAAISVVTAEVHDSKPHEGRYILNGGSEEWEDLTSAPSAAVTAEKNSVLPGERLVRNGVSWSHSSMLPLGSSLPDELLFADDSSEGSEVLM

[6] = molecular target: T6, MUSK (Homo sapiens, UniProt O15146)
T6 construct: purchased Eurofins DiscoverX KINOMEscan
T6 sequence (O15146 24-869): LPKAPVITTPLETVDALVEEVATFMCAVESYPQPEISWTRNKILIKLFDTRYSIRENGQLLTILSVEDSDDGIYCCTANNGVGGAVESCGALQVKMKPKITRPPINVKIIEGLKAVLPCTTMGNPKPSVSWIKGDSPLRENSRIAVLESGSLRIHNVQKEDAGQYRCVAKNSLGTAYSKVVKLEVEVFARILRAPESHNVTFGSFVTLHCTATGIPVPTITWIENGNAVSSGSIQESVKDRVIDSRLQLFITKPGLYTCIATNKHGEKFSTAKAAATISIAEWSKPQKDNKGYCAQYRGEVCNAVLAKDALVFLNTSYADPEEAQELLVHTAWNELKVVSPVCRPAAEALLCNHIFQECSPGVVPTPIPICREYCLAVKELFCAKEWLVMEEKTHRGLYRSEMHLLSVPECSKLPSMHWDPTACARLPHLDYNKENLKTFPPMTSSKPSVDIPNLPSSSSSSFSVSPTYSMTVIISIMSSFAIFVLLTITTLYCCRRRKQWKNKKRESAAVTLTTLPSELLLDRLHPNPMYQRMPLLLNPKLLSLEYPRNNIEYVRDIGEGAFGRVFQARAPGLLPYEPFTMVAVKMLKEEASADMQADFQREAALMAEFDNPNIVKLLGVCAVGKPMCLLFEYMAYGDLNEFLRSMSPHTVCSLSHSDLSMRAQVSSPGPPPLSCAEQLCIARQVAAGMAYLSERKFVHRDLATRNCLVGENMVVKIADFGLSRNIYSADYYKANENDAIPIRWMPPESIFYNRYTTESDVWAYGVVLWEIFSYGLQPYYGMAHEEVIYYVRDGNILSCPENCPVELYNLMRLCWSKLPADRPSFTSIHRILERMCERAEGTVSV

[7] = molecular target: T7, EPHB6 (Homo sapiens, UniProt O15197)
T7 construct: purchased Eurofins DiscoverX KINOMEscan
T7 sequence (O15197 32-1021): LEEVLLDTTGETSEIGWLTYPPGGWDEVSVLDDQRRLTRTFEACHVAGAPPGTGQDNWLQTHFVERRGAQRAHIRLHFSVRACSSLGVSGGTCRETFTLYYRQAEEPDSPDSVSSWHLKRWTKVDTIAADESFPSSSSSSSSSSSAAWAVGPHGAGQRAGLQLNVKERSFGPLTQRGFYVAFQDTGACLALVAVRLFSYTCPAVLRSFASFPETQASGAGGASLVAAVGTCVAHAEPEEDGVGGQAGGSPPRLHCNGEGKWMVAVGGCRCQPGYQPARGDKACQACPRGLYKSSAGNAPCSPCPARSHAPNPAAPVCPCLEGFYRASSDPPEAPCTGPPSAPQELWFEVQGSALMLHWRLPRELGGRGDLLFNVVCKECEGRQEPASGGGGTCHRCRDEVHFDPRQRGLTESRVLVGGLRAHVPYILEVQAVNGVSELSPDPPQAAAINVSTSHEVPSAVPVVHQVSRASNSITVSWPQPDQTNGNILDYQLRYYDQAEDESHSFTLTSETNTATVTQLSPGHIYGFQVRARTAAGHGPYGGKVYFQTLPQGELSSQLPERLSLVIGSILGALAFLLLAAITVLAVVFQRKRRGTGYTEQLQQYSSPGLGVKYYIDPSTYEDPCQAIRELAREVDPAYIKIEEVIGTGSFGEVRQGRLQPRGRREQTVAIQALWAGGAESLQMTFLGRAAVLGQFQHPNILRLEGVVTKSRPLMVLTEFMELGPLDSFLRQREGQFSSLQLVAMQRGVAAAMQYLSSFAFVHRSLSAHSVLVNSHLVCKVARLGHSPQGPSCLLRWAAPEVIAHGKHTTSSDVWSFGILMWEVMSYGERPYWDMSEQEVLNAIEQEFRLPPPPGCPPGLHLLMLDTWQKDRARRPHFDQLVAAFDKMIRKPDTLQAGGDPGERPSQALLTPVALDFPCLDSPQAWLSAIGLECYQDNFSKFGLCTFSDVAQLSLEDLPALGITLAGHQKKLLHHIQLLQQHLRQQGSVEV

T1 sequence (P50750 whole entry): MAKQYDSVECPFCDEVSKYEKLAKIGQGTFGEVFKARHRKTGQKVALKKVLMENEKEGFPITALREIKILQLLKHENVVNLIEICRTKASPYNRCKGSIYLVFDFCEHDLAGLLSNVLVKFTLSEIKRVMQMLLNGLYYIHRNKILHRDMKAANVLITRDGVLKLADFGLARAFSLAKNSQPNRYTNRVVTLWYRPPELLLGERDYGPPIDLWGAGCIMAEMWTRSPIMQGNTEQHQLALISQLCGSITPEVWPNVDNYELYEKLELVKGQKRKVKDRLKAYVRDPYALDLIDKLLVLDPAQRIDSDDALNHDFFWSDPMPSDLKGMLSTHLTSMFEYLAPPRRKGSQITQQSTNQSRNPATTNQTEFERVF
T4 sequence (Q9NY57 whole entry): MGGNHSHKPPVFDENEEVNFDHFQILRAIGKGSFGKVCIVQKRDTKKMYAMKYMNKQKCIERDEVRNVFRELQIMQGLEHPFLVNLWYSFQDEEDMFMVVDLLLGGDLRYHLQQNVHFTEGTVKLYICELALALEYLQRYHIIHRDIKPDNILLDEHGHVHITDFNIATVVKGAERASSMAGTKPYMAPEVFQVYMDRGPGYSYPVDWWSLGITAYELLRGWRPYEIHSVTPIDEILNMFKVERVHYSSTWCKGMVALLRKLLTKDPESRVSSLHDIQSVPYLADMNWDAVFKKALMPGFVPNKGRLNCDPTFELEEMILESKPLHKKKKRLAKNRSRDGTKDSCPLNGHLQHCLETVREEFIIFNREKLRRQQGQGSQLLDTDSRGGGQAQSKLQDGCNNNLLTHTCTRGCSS
T3 sequence (Q9H1R3 whole entry): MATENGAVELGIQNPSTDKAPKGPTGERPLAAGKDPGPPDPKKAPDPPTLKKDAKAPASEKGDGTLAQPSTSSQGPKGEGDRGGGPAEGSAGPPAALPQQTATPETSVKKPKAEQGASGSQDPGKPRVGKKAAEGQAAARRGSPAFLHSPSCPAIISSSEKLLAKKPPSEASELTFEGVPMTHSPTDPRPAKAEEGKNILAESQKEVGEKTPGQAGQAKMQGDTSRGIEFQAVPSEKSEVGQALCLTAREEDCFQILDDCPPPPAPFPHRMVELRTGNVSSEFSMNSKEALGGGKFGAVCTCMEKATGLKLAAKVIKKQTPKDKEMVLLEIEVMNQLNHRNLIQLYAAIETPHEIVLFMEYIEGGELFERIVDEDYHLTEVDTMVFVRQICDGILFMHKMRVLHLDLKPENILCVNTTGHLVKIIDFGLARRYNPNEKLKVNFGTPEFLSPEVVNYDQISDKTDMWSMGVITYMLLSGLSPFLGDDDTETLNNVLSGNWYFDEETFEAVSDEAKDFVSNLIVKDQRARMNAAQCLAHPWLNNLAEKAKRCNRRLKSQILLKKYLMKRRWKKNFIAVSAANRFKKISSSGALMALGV

Structure (SMILES)	remaining binding at 1 µM [1]	remaining binding at 1 µM [2]	remaining binding at 1 µM [3]	remaining binding at 1 µM [4]	remaining binding at 1 µM [5]	remaining binding at 1 µM [6]	remaining binding at 1 µM [7]
Clc1cc(NCC2CC2)c2ncc(-c3ccc4[nH]ncc4c3)n2n1 [compound 2, 6-Chloro-N-(cyclopropylmethyl)-3-(1H-indazol-5-yl)imidazo[1,2-b]pyridazin-8-amine]	98%	76%	82%	94%	100%	72%	68%
O=C(CN1CCOCC1)N[C@H]1CC[C@H](Nc2cc(Cl)nn3c(-c4ccc5[nH]ncc5c4)cnc23)CC1 [compound 26]	43%	38%	52%	100%	70%	42%	89%
CN1CCC(CNc2cc(Cl)nn3c(-c4cc5nc(Nc6ccccc6)[nH]c5cc4F)cnc23)CC1 [compound 31, 6-Chloro-3-(6-fluoro-2-(phenylamino)-1H-benzo[d]imidazol-5-yl)-N-((1-methylpiperidin-4-yl)methyl)imidazo[1,2-b]pyridazin-8-amine]	95%	71%	89%	100%	82%	40%	83%

Source: article PMC6437697 (Journal of Medicinal Chemistry, 2019)
